Consider 12 compounds from ChEMBL document CHEMBL4229426, “Synthesis, antitumor activity evaluation and mechanistic study of novel hederacolchiside A1 derivatives bearing an aryl triazole moiety” (Bioorg Med Chem, 2018).

Holding throughout (assay type): functional, cell-based
The subject of one assay is A549. Put plainly: Antiproliferative activity against human A549 cells after 48 hrs by MTT assay. To be noted: A549, 48 h.
The test system of another assay is HL-60. Put plainly: Antiproliferative activity against human HL60 cells after 48 hrs by MTT assay. The following applies: HL-60, 48 h. On the technique in general: Tetrazolium dyes change colour on reduction, which living cells bring about.
In the next assay the test system is PC-3. In words: Antiproliferative activity against human PC3 cells after 48 hrs by MTT assay. To be noted: PC-3, 48 h.
In a further assay the test system is HepG2. Put plainly: Antiproliferative activity against human HepG2 cells after 48 hrs by MTT assay. To be noted: HepG2, 48 h.
The subject of the next assay is U-937. In words: Antiproliferative activity against human U937 cells after 48 hrs by MTT assay. The following applies: U-937, 48 h.
For the next assay, the system named is HT-29. Put plainly: Antiproliferative activity against human HT-29 cells after 48 hrs by MTT assay. To be noted: HT-29, 48 h.

A word on the IC50: it is the concentration at which inhibition is half-maximal.

In the case of `Cc1ccccc1-n1cc(CNC(=O)[C@]23CCC(C)(C)C[C@H]2C2=CC[C@@H]4[C@@]5(C)CC[C@H](O[C@@H]6OC[C@H](O[C@@H]7O[C@H](CO)[C@@H](O)[C@H](O)[C@H]7O)[C@H](O)[C@H]6O[C@@H]6O[C@@H](C)[C@H](O)[C@@H](O)[C@H]6O)C(C)(C)[C@@H]5CC[C@@]4(C)[C@]2(C)CC3)nn1`, the IC50 in the assay with A549 worked out at 4.13 µM; in the assay on HL-60, 3.84 µM; in the assay with PC-3, 5.03 µM; in the assay on HepG2 it was 1.51 µM; in the assay with U-937, 4.68 µM; in the assay with HT-29, 5.35 µM.
For `C[C@@H]1O[C@@H](O[C@H]2[C@H](O[C@H]3CC[C@]4(C)[C@H]5CC=C6[C@@H]7CC(C)(C)CC[C@]7(C(=O)NCc7cn(-c8cccc(F)c8)nn7)CC[C@@]6(C)[C@]5(C)CC[C@H]4C3(C)C)OC[C@H](O[C@@H]3O[C@H](CO)[C@@H](O)[C@H](O)[C@H]3O)[C@@H]2O)[C@H](O)[C@H](O)[C@H]1O`, the IC50 in the assay on A549 was found to be 4.25 µM; in the assay on HL-60, 1.32 µM; with PC-3 it was 0.72 µM; in the assay on HepG2 it was 0.9 µM; in the assay with U-937 it was 3.12 µM; in the assay on HT-29 it was 2.23 µM.
Turning to `C[C@@H]1O[C@@H](O[C@H]2[C@H](O[C@H]3CC[C@]4(C)[C@H]5CC=C6[C@@H]7CC(C)(C)CC[C@]7(C(=O)NCc7cn(-c8ccc(C(F)(F)F)cc8)nn7)CC[C@@]6(C)[C@]5(C)CC[C@H]4C3(C)C)OC[C@H](O[C@@H]3O[C@H](CO)[C@@H](O)[C@H](O)[C@H]3O)[C@@H]2O)[C@H](O)[C@H](O)[C@H]1O`, the IC50 with A549 was determined as 4.9 µM; in the assay on HL-60, 5.23 µM; with PC-3 it was 3.98 µM; with HepG2 it was 2.45 µM; in the assay with U-937 it was 0.95 µM; in the assay with HT-29, 4.56 µM.
On to `COc1ccc(-n2cc(CNC(=O)[C@]34CCC(C)(C)C[C@H]3C3=CC[C@@H]5[C@@]6(C)CC[C@H](O[C@@H]7OC[C@H](O[C@@H]8O[C@H](CO)[C@@H](O)[C@H](O)[C@H]8O)[C@H](O)[C@H]7O[C@@H]7O[C@@H](C)[C@H](O)[C@@H](O)[C@H]7O)C(C)(C)[C@@H]6CC[C@@]5(C)[C@]3(C)CC4)nn2)cc1`, for which the IC50 in the assay on A549 was determined as 4.86 µM; with HL-60, 2.48 µM; with PC-3, 0.55 µM; in the assay on HepG2, 3.58 µM; with U-937 it was 0.79 µM; in the assay with HT-29 it was 1.13 µM.
Take `C[C@@H]1O[C@@H](O[C@H]2[C@H](O[C@H]3CC[C@]4(C)[C@H]5CC=C6[C@@H]7CC(C)(C)CC[C@]7(C(=O)NCc7cn(-c8cccc(Br)c8)nn7)CC[C@@]6(C)[C@]5(C)CC[C@H]4C3(C)C)OC[C@H](O[C@@H]3O[C@H](CO)[C@@H](O)[C@H](O)[C@H]3O)[C@@H]2O)[C@H](O)[C@H](O)[C@H]1O`: the IC50 in the assay with A549 was 0.89 µM; in the assay on HL-60, 0.99 µM; with PC-3 it was 0.49 µM; in the assay with HepG2, 7.29 µM; with U-937, 0.72 µM; in the assay on HT-29 it was 1.77 µM.
Turning to `C[C@@H]1O[C@@H](O[C@H]2[C@H](O[C@H]3CC[C@]4(C)[C@H]5CC=C6[C@@H]7CC(C)(C)CC[C@]7(C(=O)NCc7cn(-c8ccc([N+](=O)[O-])cc8)nn7)CC[C@@]6(C)[C@]5(C)CC[C@H]4C3(C)C)OC[C@H](O[C@@H]3O[C@H](CO)[C@@H](O)[C@H](O)[C@H]3O)[C@@H]2O)[C@H](O)[C@H](O)[C@H]1O`, the IC50 is 3.98 µM with A549; 21.1 µM in the assay on HL-60; 5.56 µM in the assay on PC-3; 26.6 µM with HepG2; 6.85 µM with U-937; 3.04 µM in the assay with HT-29.
As to `C[C@@H]1O[C@@H](O[C@H]2[C@H](O[C@H]3CC[C@]4(C)[C@H]5CC=C6[C@@H]7CC(C)(C)CC[C@]7(C(=O)NCc7cn(-c8ccccc8[N+](=O)[O-])nn7)CC[C@@]6(C)[C@]5(C)CC[C@H]4C3(C)C)OC[C@H](O[C@@H]3O[C@H](CO)[C@@H](O)[C@H](O)[C@H]3O)[C@@H]2O)[C@H](O)[C@H](O)[C@H]1O`, the IC50 stood at 54.9 µM in the assay on A549; 36.7 µM in the assay with HL-60; 50.5 µM in the assay with PC-3; 34.9 µM in the assay on HepG2; 40.1 µM in the assay on U-937; 7.76 µM in the assay with HT-29.
With `C[C@@H]1O[C@@H](O[C@H]2[C@H](O[C@H]3CC[C@]4(C)[C@H]5CC=C6[C@@H]7CC(C)(C)CC[C@]7(C(=O)NCc7cn(-c8ccc(Cl)cc8)nn7)CC[C@@]6(C)[C@]5(C)CC[C@H]4C3(C)C)OC[C@H](O[C@@H]3O[C@H](CO)[C@@H](O)[C@H](O)[C@H]3O)[C@@H]2O)[C@H](O)[C@H](O)[C@H]1O`, the IC50 with A549 is 1.87 µM; with HL-60, 4.52 µM; in the assay on PC-3 it was 5.64 µM; in the assay with HepG2, 2.13 µM; in the assay on U-937 it was 0.94 µM; in the assay on HT-29, 41 µM.
For `CC(=O)c1cccc(-n2cc(CNC(=O)[C@]34CCC(C)(C)C[C@H]3C3=CC[C@@H]5[C@@]6(C)CC[C@H](O[C@@H]7OC[C@H](O[C@@H]8O[C@H](CO)[C@@H](O)[C@H](O)[C@H]8O)[C@H](O)[C@H]7O[C@@H]7O[C@@H](C)[C@H](O)[C@@H](O)[C@H]7O)C(C)(C)[C@@H]6CC[C@@]5(C)[C@]3(C)CC4)nn2)c1`, the IC50 in the assay on A549 was found to be 0.44 µM; with HL-60 it was 5.66 µM; with PC-3, 6.28 µM; in the assay on HepG2, 0.5 µM; in the assay on U-937, 0.81 µM; in the assay with HT-29, 3.33 µM.
With `C[C@@H]1O[C@@H](O[C@H]2[C@H](O[C@H]3CC[C@]4(C)[C@H]5CC=C6[C@@H]7CC(C)(C)CC[C@]7(C(=O)NCc7cn(-c8c(Cl)cccc8Cl)nn7)CC[C@@]6(C)[C@]5(C)CC[C@H]4C3(C)C)OC[C@H](O[C@@H]3O[C@H](CO)[C@@H](O)[C@H](O)[C@H]3O)[C@@H]2O)[C@H](O)[C@H](O)[C@H]1O`, the IC50 worked out at 6.68 µM in the assay on A549; 28.2 µM in the assay with HL-60; 41.9 µM in the assay with PC-3; 23 µM with HepG2; 18.4 µM in the assay on U-937; 37.8 µM with HT-29.
Consider `C[C@@H]1O[C@@H](O[C@H]2[C@H](O[C@H]3CC[C@]4(C)[C@H]5CC=C6[C@@H]7CC(C)(C)CC[C@]7(C(=O)NCc7cn(-c8ccccc8Cl)nn7)CC[C@@]6(C)[C@]5(C)CC[C@H]4C3(C)C)OC[C@H](O[C@@H]3O[C@H](CO)[C@@H](O)[C@H](O)[C@H]3O)[C@@H]2O)[C@H](O)[C@H](O)[C@H]1O`, for which the IC50 in the assay with A549 was found to be 1.81 µM; in the assay with HL-60 it was 2.26 µM; in the assay on PC-3, 5.28 µM; with HepG2, 3.92 µM; with U-937, 1.03 µM; in the assay with HT-29, 4.18 µM.
For the compound `C[C@@H]1O[C@@H](O[C@H]2[C@H](O[C@H]3CC[C@]4(C)[C@H]5CC=C6[C@@H]7CC(C)(C)CC[C@]7(C(=O)NCc7cn(-c8ccccc8Br)nn7)CC[C@@]6(C)[C@]5(C)CC[C@H]4C3(C)C)OC[C@H](O[C@@H]3O[C@H](CO)[C@@H](O)[C@H](O)[C@H]3O)[C@@H]2O)[C@H](O)[C@H](O)[C@H]1O`, the IC50 is 2.08 µM in the assay on A549; 3.11 µM with HL-60; 5.29 µM with PC-3; 2.95 µM with HepG2; 0.78 µM in the assay with U-937; 5.11 µM in the assay on HT-29.
